# Where two headings read alike, the source gives them in different places.
# Experiments:
# [1] = test system: RSV A2; assay: CPE assay, RSV A2 in HEp-2 cells (resazurin); type: cell-based, respiratory syncytial virus; settings: human respiratory syncytial virus, HEp-2
# [2] = test system: RSV A 1997/12-35; assay: CPE 1, resazurin 384-well CPE assay in HEp-2; type: cell-based; settings: human respiratory syncytial virus
# Procedure: (§1) For known clinical strains (RSV A 1997/12-35, 2001/2-20, 200/3-4, and Memphis 37), a 384-well-format resazurin-based CPE assay was conducted.
# [3] = test system: RSV A 2000/3-4; assay: CPE 1, resazurin 384-well CPE assay in HEp-2; type: cell-based; settings: human respiratory syncytial virus
# Procedure: as §1
# [4] = test system: RSV A 2001/2-20; assay: CPE 1, resazurin 384-well CPE assay in HEp-2; type: cell-based; settings: human respiratory syncytial virus
# Procedure: as §1
# [5] = test system: RSV A Memphis 37c; assay: CPE 1, resazurin 384-well CPE assay in HEp-2; type: cell-based; settings: human respiratory syncytial virus
# Procedure: as §1
# [6] = test system: known RSV A clinical isolates; assay: CPE assays, known RSV A clinical isolates in HEp-2; type: cell-based; settings: human respiratory syncytial virus, read-out: IC50, range over known RSV A clinical isolates
# Procedure: For RSV A 2001/3-12, 1998/3-2, and USU⃥v1225, CPE was induced in HEp-2 cells for 7 days and the plates were then stained with neutral red dye for approximately 2 h. The intracellular incorporated dye was extracted in 50:50 Sorensen citrate buffer-ethanol and the absorbance read on a spectrophotometer. The optical density (OD) of test wells was converted to percentage of cell and virus controls. […] The virus inocula were ∼63 50% cell culture infectious doses (CCID50) per well for 2001/3-12, ∼40 CCID50/well for 1998/3-2, and ∼32 CCID50/well for USU\v1225. This assay was conducted in Utah State University (Logan, UT).
# as §1
# [7] = test system: RSV B 9320; assay: CPE assay in HEp-2 cells (resazurin); type: cell-based; settings: human respiratory syncytial virus
# [8] = test system: RSVA 1211; assay: microbe, parasite or virus in culture; type: cell-based; settings: human respiratory syncytial virus, RSVA 1211, clinical
# [9] = test system: RSVA 689; assay: microbe, parasite or virus in culture; type: cell-based; settings: human respiratory syncytial virus, RSVA 689, clinical
# [10] = test system: RSVB 1000; assay: microbe, parasite or virus in culture; type: cell-based; settings: human respiratory syncytial virus, RSVB 1000, clinical, 3 parameter curve fit
# [11] = test system: Measles virus (Edmonton strain); assay: microbe, parasite or virus in culture; type: cell-based; settings: MRC5
# [12] = test system: Rhinovirus 16; assay: microbe, parasite or virus in culture; type: cell-based, human rhinovirus; settings: Rhinovirus 16, HeLa
# [13] = test system: Herpes simplex virus 1 (HF strain); assay: microbe, parasite or virus in culture; type: cell-based; settings: Herpes simplex virus 1, Vero
# [14] = test system: RSV A2; assay: Time-of-addition assay and MOI dependency, CPE (methylene blue) in HEp-2; type: cell-based; settings: human respiratory syncytial virus
# [15] = test system: RSV A2; assay: RSV A2 infection of ALI-cultured human airway epithelial cells, plaque assay of apical wash; type: cell-based, respiratory syncytial virus; settings: MOI 0.01
# Procedure: On the day of infection (day 0), the apical surface of each insert was washed once with 300 μl of sterile PBS and the inserts were then transferred to new 24-well plates containing 780 μl of fresh MucilAir culture medium (Epithelix Sàrl). […] The virus inoculum was removed with a pipette and inserts were washed twice with 300 μl of sterile PBS. A day 0 sample was harvested by adding 300 μl of sterile PBS to the apical surface of each well for 5 min. The 300-μl sample was then removed and transferred to 0.5-ml tubes containing 100 μl of 50% sucrose dissolved in PBS, and the tubes were stored at -80°C. This harvesting procedure was repeated daily until day 7. PC786 was dosed apically onto MucilAir inserts. […] The dosing regimen was performed daily on day 0 to day 6 following each sample collection. On day 5, the basal medium was removed from every well and replenished with fresh MucilAir culture medium as a necessary maintenance step for ALI culture cells. Virus titer in the apical wash samples was determined by plaque assay. […] Cells were washed twice with PBS before 150 μl of secondary antibody (goat anti-mouse HRP conjugate [Dako Ltd., Ely, UK; P044701-2]), diluted 1:400 in blocking buffer, was added to cells for 1 h at RT, with shaking. […] Each well received 150 μl of development substrate (sigmaFAST […]; Sigma-Aldrich) until plaques were visible. Plaques were counted by eye and confirmed using light microscopy.
# [16] = target: minigenome construct comprising the L protein, M2-1, N, and P of RSV A2 (Human respiratory syncytial virus A, UniProt P28887); assay: cell-based
# minigenome construct comprising the L protein, M2-1, N, and P of RSV A2, sequence (P28887 whole entry): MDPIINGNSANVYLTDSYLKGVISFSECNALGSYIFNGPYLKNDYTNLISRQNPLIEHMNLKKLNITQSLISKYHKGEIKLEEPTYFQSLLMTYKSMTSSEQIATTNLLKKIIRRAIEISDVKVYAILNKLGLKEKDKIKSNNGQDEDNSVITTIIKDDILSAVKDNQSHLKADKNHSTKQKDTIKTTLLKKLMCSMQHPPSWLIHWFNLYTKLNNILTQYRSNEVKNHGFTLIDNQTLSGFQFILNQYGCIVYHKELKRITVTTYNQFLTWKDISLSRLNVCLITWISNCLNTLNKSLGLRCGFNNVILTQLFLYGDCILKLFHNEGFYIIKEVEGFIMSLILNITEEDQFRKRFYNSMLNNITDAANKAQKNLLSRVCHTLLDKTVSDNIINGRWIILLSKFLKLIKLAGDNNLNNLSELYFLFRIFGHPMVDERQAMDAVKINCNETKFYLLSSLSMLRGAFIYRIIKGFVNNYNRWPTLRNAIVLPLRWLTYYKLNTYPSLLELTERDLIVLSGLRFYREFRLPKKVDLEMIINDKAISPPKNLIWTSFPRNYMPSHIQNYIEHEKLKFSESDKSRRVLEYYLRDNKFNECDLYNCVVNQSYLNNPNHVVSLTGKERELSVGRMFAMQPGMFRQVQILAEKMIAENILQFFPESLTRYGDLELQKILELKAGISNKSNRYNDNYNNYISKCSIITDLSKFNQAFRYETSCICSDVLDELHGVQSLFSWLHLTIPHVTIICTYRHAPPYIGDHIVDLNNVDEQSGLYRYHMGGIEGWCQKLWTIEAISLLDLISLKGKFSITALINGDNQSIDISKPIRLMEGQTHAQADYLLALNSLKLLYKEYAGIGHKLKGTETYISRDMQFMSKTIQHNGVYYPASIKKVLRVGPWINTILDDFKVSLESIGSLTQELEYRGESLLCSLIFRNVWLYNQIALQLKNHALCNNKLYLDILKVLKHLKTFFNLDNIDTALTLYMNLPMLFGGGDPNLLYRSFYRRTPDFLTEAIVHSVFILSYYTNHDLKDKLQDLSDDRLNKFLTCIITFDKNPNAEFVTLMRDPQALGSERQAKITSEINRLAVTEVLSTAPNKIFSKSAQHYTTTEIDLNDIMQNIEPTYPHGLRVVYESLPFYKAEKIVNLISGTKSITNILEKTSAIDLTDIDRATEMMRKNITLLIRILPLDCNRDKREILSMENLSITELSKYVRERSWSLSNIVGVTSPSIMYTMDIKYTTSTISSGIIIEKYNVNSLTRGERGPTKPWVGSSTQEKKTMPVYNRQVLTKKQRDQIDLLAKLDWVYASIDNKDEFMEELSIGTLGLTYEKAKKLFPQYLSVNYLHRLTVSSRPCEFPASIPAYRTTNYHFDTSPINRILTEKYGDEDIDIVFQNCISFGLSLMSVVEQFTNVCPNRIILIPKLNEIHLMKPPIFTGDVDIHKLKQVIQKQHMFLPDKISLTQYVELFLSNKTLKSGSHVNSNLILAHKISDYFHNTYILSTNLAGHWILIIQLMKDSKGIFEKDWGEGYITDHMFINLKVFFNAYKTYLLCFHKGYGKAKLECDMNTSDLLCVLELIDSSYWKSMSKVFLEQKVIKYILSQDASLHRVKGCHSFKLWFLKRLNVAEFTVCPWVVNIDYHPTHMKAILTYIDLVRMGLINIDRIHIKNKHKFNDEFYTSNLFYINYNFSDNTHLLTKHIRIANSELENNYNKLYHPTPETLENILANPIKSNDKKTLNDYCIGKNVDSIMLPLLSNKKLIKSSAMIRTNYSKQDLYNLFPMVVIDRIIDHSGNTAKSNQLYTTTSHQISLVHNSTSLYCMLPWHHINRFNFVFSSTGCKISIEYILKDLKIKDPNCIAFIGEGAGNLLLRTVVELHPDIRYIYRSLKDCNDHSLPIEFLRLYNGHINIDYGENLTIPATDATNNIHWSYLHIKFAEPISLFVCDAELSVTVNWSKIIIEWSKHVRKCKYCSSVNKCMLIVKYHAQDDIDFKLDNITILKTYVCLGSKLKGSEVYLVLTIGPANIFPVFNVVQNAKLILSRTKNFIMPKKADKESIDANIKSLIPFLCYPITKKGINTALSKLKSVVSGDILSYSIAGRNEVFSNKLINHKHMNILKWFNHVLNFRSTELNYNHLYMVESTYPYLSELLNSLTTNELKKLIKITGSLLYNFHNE
# minigenome construct comprising the L protein, M2-1, N, and P of RSV A2, sequence (P03421 whole entry, further chain): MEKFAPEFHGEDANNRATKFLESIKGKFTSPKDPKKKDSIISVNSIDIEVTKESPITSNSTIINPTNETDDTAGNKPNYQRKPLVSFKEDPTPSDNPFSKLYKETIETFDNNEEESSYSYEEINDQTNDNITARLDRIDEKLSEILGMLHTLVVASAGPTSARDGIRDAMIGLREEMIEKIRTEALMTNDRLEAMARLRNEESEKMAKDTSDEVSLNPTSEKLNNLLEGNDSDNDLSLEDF
# [17] = test system: PC786 escape mutant (Y1631H) of RSV A2; type: cell-based, respiratory syncytial virus; settings: CPE
# [18] = test system: RSVA 1211; settings: human respiratory syncytial virus
# [19] = test system: RSVB 1262; settings: human respiratory syncytial virus
# [20] = test system: Wild type RSVA2 (vehicle control virus); assay: CPE assay, vehicle control (wild type) RSV A2 virus; settings: human respiratory syncytial virus
# [21] = HEp-2, read-out: RSV titre in supernatant IC50 (0.3 Log PFUe reduction) (converted)
# [22] = HEp-2, read-out: RSV titre in supernatant IC90 (1 Log PFUe reduction) (converted)
compound,measurement,setting,value
"Cc1cnc(N2CC3(CCOCC3)C2)c(C(=O)Nc2ccc(C(=O)N3CCc4cc(C(=O)Nc5c(C)cccc5F)sc4-c4ccccc43)cc2)c1 [PC786, N-(2-fluoro-6-methylphenyl)-6-(4-(5-methyl-2-(7-oxa-2-azaspiro[3.5]nonan-2-yl)nicotinamido)benzoyl)-5,6-dihydro-4H-benzo[b]thieno[2,3-d]azepine-2-carboxamide]",IC50,"[1]; RSV A2, laboratory, low-passage isolate study, read-out: CPE assay IC50",0.96 nM
same,IC90,"[1]; RSV A2, laboratory, low-passage isolate study, read-out: CPE assay IC90",1.82 nM
same,IC50,[1]; read-out: RSV A2 IC50,0.5 ± 0.0014 nM
same,IC90,[1]; read-out: RSV A2 IC90,0.63 ± 0.035 nM
same,IC50,[2],0.35 nM
same,IC50,[3],0.14 nM
same,IC50,[4],0.53 nM
same,IC50,[5],0.5 nM
same,IC50,[6],0.14 to 3.2 nM
same,IC50,[7],29.1 nM
same,IC90,[7],64.3 nM
same,IC50,[8]; read-out: CPE IC50,< 0.09 nM
same,IC90,[8]; read-out: CPE IC90,1.96 nM
same,IC50,[9]; read-out: CPE IC50,0.5 nM
same,IC90,[9]; read-out: CPE IC90,0.6 nM
same,IC50,[10]; read-out: CPE IC50,13.4 nM
same,IC90,[10]; read-out: CPE IC90,342 nM
same,IC90 or IC95,[11],>14000 nM
same,IC50,[11]; Measles morbillivirus,> 14000 nM
same,IC50,[12]; Enterovirus,> 14000 nM
same,IC90 or IC95,[12],>14000 nM
same,IC90 or IC95,[13],>14000 nM
same,IC50,[13]; Human alphaherpesvirus 1,> 14000 nM
same,IC50,"[14]; HEp-2, 24 h, MOI 0.02, n = 3, read-out: IC50 at treatment time 24 h postinoculation",0.85 nM
same,IC50,"[14]; HEp-2, 24 h, MOI 0.1, n = 3, read-out: IC50 at treatment time 24 h postinoculation",1.09 nM
same,IC50,"[14]; HEp-2, 24 h, MOI 1.0, n = 3, read-out: IC50 at treatment time 24 h postinoculation",0.5 nM
same,IC50,"[14]; HEp-2, 48 h, read-out: IC50 at treatment time 48 h postinoculation, MOI 0.02, n = 3",0.94 nM
same,IC50,"[14]; HEp-2, 48 h, read-out: IC50 at treatment time 48 h postinoculation, MOI 0.1, n = 3",2.36 nM
same,IC50,"[14]; HEp-2, 48 h, read-out: IC50 at treatment time 48 h postinoculation, MOI 1.0, n = 3",0.46 nM
same,IC50,"[14]; HEp-2, 72 h, MOI 0.02, n = 3, read-out: IC50 at treatment time 72 h postinoculation",> 93.4 nM
same,IC50,"[14]; HEp-2, 72 h, MOI 0.1, n = 3, read-out: IC50 at treatment time 72 h postinoculation",> 140 nM
same,IC50,"[14]; HEp-2, 72 h, MOI 1.0, n = 3, read-out: IC50 at treatment time 72 h postinoculation",> 140 nM
same,IC50,"[14]; HEp-2, MOI 0.02, n = 3, CPE at 144 h, read-out: IC50 at treatment time 0 h postinoculation",0.6 nM
same,IC50,"[14]; HEp-2, MOI 0.1, n = 3, CPE at 144 h, read-out: IC50 at treatment time 0 h postinoculation",0.99 nM
same,IC50,"[14]; HEp-2, MOI 1.0, n = 3, CPE at 144 h, read-out: IC50 at treatment time 0 h postinoculation",0.44 nM
same,viral replication in apical wash (plaque assay),[15]; 5.6 nM apical once daily day 0 to day 6,did not peak until day 5
same,viral replication in apical wash (plaque assay),[15]; 28 nM apical once daily day 0 to day 6,viral replication was not detected until day 4
same,viral quantity in apical wash (plaque assay),[15]; 140 nM apical once daily day 0 to day 6,below detectable limits
same,inhibition at 0.14 µM,"[16]; HEp-2, at 140 nM, read-out: maximum inhibition achieved",100%
same,IC90,"[16]; luciferase, HEp-2, wild-type L protein",1.54 nM
same,IC50,"[17]; read-out: PC786 escape mutant IC50, N=3, after 6th passage",17.9 nM
same,IC90,"[17]; read-out: PC786 escape mutant IC90, N=3",1120 nM
same,IC50,[18]; [21],< 0.09 nM
same,IC90,[18]; [22],1.05 nM
same,IC50,[19]; [21],9.36 nM
same,IC90,[19]; [22],12.3 nM
same,IC50,[20]; read-out: Wild type RSVA2 IC50,0.027 nM
same,IC90,[20]; read-out: Wild type RSVA2 IC90,0.065 nM

# Reference: article PMC5571287 (Antimicrobial Agents and Chemotherapy, 2017)
